Source: PubChem BioAssay (NCI)
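Exposure lasted 48 hours, with cells grown in 96-well plates and compounds tested at five concentrations. At the TGI there is no net growth.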

Experiments:
Assay in all cases: inhibition of tumour cell growth, NCI panel, 48 h
[1] = test system: 786-0 renal
[2] = test system: A498 renal
[3] = test system: A549 NSCLC
[4] = test system: ACHN renal
[5] = test system: BT-549 breast
[6] = test system: CAKI-1 renal
[7] = test system: CCRF-CEM leukemia
[8] = test system: COLO 205 colon
[9] = test system: DLD-1 colon
[10] = test system: DMS 273 small cell lung
[11] = test system: DU-145 prostate
[12] = test system: EKVX NSCLC
[13] = test system: HCC-2998 colon
[14] = test system: HCT-116 colon
[15] = test system: HCT-15 colon
[16] = test system: HL-60(TB) leukemia
[17] = test system: HOP-18 NSCLC
[18] = test system: HOP-62 NSCLC
[19] = test system: HOP-92 NSCLC
[20] = test system: HS 578T breast
[21] = test system: HT29 colon
[22] = test system: IGROV1 ovarian
[23] = test system: K-562 leukemia
[24] = test system: KM12 colon
[25] = test system: KM20L2 colon
[26] = test system: LOX IMVI melanoma
[27] = test system: LXFL 529 NSCLC
[28] = test system: M14 melanoma
[29] = test system: M19-MEL melanoma
[30] = test system: MALME-3M melanoma
[31] = test system: MCF7 breast
[32] = test system: MDA-MB-231 breast
[33] = test system: MDA-N
[34] = test system: MOLT-4 leukemia
[35] = test system: NCI-H226 lung
[36] = test system: NCI-H23 lung
[37] = test system: NCI-H460 lung
[38] = test system: NCI-H522 lung
[39] = test system: OVCAR-3 ovarian
[40] = test system: OVCAR-4 ovarian
[41] = test system: OVCAR-5 ovarian
[42] = test system: OVCAR-8 ovarian
[43] = test system: PC-3 prostate
[44] = test system: RPMI-8226 leukemia
[45] = test system: RXF 393 renal
[46] = test system: RXF-631 renal
[47] = test system: SF-268 CNS
[48] = test system: SF-295 CNS
[49] = test system: SF-539 CNS
[50] = test system: SK-MEL-2 melanoma
[51] = test system: SK-MEL-28 melanoma
[52] = test system: SK-MEL-5 melanoma
[53] = test system: SK-OV-3 ovarian
[54] = test system: SN12C renal
[55] = test system: SNB-19 CNS
[56] = test system: SNB-75 CNS
[57] = test system: SNB-78 CNS
[58] = test system: SR leukemia
[59] = test system: SW-620 colon
[60] = test system: T-47D breast
[61] = test system: TK-10 renal
[62] = test system: U251 CNS
[63] = test system: UACC-257 melanoma
[64] = test system: UACC-62 melanoma
[65] = test system: UO-31 renal
[66] = test system: XF 498 CNS

## O=C1c2ccccc2C(=O)c2sc(Nc3ccccc3Cl)nc21
[1]
  TGI: 27.9 µM
[2]
  TGI: 32.2 µM
[3]
  TGI: 46.2 µM
[4]
  TGI: 14.9 µM
[5]
  TGI: 29.5 µM
[6]
  TGI: 18.4 µM
[7]
  TGI: 9.56 µM
[8]
  TGI: 29 µM
[9]
  TGI: 25.1 µM
[10]
  TGI: 31.9 µM
[11]
  TGI: 31.4 µM
[12]
  TGI: 22.2 µM
[13]
  TGI: 34.9 µM
[14]
  TGI: 22.9 µM
[15]
  TGI: 29.6 µM
[16]
  TGI: 4.18 µM
[17]
  TGI: 27.2 µM
[18]
  TGI: 33.3 µM
[19]
  TGI: 27.9 µM
[20]
  TGI: 80.4 µM
[21]
  TGI: 45.4 µM
[22]
  TGI: 28.3 µM
[23]
  TGI: 6.8 µM
[24]
  TGI: 29.6 µM
[25]
  TGI: 39.5 µM
[26]
  TGI: 6.63 µM
[27]
  TGI: 5.56 µM
[28]
  TGI: 13.1 µM
[29]
  TGI: 3.17 µM
[30]
  TGI: 28 µM
[31]
  TGI: 40.6 µM
[32]
  TGI: 13.7 µM
[33]
  TGI: 6.13 µM
[34]
  TGI: 11.1 µM
[35]
  TGI: 28.6 µM
[36]
  TGI: 17.5 µM
[37]
  TGI: 29.6 µM
[38]
  TGI: 9.61 µM
[39]
  TGI: 25.8 µM
[40]
  TGI: 22.8 µM
[41]
  TGI: 41 µM
[42]
  TGI: 20.3 µM
[43]
  TGI: 25.9 µM
[44]
  TGI: 10.6 µM
[45]
  TGI: 30 µM
[46]
  TGI: 40.6 µM
[47]
  TGI: 23.7 µM
[48]
  TGI: 30.1 µM
[49]
  TGI: 31.4 µM
[50]
  TGI: 34.5 µM
[51]
  TGI: 30.2 µM
[52]
  TGI: 16.4 µM
[53]
  TGI: 33.7 µM
[54]
  TGI: 21.1 µM
[55]
  TGI: 28.1 µM
[56]
  TGI: 27.1 µM
[57]
  TGI: 40.8 µM
[58]
  TGI: 12.1 µM
[59]
  TGI: 8.97 µM
[60]
  TGI: 34.5 µM
[61]
  TGI: 34.2 µM
[62]
  TGI: 19.5 µM
[63]
  TGI: 21.4 µM
[64]
  TGI: 17.3 µM
[65]
  TGI: 24.4 µM
[66]
  TGI: 30.2 µM
